Laboratory results: publication PMC11062922 (Nature Chemical Biology, 2023)
Read-outs that look alike come from different tables or passages of the source.

What was measured:
[1] = target: PKN3 (Homo sapiens, UniProt Q6P5Z2); test: NanoBRET in-cell target engagement in HEK293T cells: PKN3; type: cell-based; set-up: full-length PKN3, CSNK2A1 or CSNK2A2 ORF; host or cells: HEK293T;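 also: Full-length PKN3 with C-terminal NanoLuc expressed in HEK293T cells, serial inhibitor dilutions competing against Kinase Tracer K5 at 500 nM, BRET read after 2 h at 37 °C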
[2] = tested on: ADRBK1; test: Kinobeads competition binding: ADRBK1; set-up: species or system human; settings: target ADRBK1
[3] = target: T1, AKT2 (Homo sapiens, UniProt P31751); test: Kinobeads competition binding: AKT2; settings: target AKT2
T1 construct: endogenous in cells

[4] = target: T2, BUB1 (Homo sapiens, UniProt O43683); test: Kinobeads competition binding: BUB1; settings: target BUB1
T2 construct: endogenous in cells

[5] = target: T3, CAMKK2 (Homo sapiens, UniProt Q96RR4); test: Kinobeads competition binding: CAMKK2; settings: target CAMKK2
T3 construct: endogenous in cells
Description: Supplement 41589_2023_1459_MOESM4_ESM.xlsx, sheet "CATDS matrix" | column: CAMKK2

[6] = target: T4, ERN1 (Homo sapiens, UniProt O75460); test: Kinobeads competition binding: ERN1; settings: target ERN1
T4 construct: endogenous in cells
Description: Supplement 41589_2023_1459_MOESM4_ESM.xlsx, sheet "CATDS matrix" | column: ERN1

[7] = target: T5, LATS1 (Homo sapiens, UniProt O95835); test: Kinobeads competition binding: LATS1; settings: target LATS1
T5 construct: endogenous in cells
T5 sequence (O95835 1-1130): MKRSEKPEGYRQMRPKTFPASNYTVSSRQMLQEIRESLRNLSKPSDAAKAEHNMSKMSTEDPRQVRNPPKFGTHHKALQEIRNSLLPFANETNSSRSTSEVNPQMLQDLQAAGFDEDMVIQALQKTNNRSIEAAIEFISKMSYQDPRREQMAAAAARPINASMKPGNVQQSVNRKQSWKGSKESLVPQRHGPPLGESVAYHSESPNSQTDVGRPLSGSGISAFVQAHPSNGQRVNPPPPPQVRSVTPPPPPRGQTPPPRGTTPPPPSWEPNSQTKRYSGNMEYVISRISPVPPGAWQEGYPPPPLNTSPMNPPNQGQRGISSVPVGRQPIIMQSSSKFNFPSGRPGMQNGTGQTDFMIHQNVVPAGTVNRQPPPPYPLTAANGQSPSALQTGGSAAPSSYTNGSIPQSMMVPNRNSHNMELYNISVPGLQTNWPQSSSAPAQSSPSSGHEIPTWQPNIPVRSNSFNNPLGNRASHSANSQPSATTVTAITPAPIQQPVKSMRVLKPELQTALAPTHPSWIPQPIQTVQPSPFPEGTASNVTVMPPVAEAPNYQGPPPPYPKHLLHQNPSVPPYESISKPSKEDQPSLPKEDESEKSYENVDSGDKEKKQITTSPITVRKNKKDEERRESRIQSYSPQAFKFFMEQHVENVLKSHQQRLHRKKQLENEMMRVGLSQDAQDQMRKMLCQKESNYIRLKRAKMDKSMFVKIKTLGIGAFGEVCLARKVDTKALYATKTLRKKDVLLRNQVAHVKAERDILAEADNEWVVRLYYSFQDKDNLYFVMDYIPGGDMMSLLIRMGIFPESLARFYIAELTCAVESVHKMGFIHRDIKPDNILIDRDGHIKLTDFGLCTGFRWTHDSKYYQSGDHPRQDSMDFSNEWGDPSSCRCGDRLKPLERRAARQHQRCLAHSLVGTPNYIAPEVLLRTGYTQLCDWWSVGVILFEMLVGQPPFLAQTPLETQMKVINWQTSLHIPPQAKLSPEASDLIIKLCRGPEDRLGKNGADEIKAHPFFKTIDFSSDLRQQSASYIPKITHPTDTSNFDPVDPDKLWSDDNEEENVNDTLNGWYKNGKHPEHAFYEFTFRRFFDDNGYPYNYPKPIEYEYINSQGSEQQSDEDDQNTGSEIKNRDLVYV
Description: Supplement 41589_2023_1459_MOESM4_ESM.xlsx, sheet "CATDS matrix" | column: LATS1

[8] = tested on: MAP2K5; test: Kinobeads competition binding: MAP2K5; set-up: species or system human; settings: target MAP2K5
[9] = tested on: MAP3K2; test: Kinobeads competition binding: MAP3K2; set-up: species or system human; settings: target MAP3K2
[10] = tested on: MAP3K3; test: Kinobeads competition binding: MAP3K3; set-up: species or system human; settings: target MAP3K3
[11] = tested on: MAP4K1; test: Kinobeads competition binding: MAP4K1; set-up: species or system human; settings: target MAP4K1
[12] = tested on: MERTK; test: Kinobeads competition binding: MERTK; set-up: species or system human; settings: target MERTK
[13] = tested on: NAT10; test: Kinobeads competition binding: NAT10; set-up: species or system human; settings: target NAT10
[14] = target: T6, PAK4 (Homo sapiens, UniProt O96013); test: Kinobeads competition binding: PAK4; settings: target PAK4
T6 construct: a mixture of lysates from five cancer cell lines; endogenous in cells
Description: Supplement 41589_2023_1459_MOESM4_ESM.xlsx, sheet "CATDS matrix" | column: PAK4

[15] = target: T7, PIP4K2C (Homo sapiens, UniProt Q8TBX8); test: Kinobeads competition binding: PIP4K2C; settings: target PIP4K2C
T7 construct: a mixture of lysates from five cancer cell lines; endogenous in cells
T7 sequence (Q8TBX8 1-421): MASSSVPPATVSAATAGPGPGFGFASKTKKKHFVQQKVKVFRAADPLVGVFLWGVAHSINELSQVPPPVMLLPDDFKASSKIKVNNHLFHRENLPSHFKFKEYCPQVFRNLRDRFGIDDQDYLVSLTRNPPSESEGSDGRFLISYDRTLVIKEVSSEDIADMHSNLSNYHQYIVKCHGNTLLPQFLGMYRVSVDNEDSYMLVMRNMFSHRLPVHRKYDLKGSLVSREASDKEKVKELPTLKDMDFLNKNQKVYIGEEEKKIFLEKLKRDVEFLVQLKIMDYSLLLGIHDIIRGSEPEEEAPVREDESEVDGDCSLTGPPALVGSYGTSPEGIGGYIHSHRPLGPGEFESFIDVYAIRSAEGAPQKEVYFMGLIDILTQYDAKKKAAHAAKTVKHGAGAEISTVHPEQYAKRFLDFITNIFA
Description: Supplement 41589_2023_1459_MOESM4_ESM.xlsx, sheet "CATDS matrix" | column: PIP4K2C

[16] = tested on: PKM; test: Kinobeads competition binding: PKM; set-up: species or system human; settings: target PKM
[17] = HEK293T cells, in-cell target engagement, read-out: IC50 PKN3 NanoBRET
[18] = average of replicates, read-out: Average of IC50 values NanoBRET PKN3
[19] = biological replicate number 1, read-out: Rep 1 IC50 NanoBRET PKN3
[20] = biological replicate number 2, read-out: Rep 2 IC50 NanoBRET PKN3
[21] = biological replicate number 3, read-out: Rep 3 IC50 NanoBRET PKN3
[22] = biological replicate number 4, read-out: Rep 4 IC50 NanoBRET PKN3

Chain of PKN3 (Q6P5Z2 whole entry): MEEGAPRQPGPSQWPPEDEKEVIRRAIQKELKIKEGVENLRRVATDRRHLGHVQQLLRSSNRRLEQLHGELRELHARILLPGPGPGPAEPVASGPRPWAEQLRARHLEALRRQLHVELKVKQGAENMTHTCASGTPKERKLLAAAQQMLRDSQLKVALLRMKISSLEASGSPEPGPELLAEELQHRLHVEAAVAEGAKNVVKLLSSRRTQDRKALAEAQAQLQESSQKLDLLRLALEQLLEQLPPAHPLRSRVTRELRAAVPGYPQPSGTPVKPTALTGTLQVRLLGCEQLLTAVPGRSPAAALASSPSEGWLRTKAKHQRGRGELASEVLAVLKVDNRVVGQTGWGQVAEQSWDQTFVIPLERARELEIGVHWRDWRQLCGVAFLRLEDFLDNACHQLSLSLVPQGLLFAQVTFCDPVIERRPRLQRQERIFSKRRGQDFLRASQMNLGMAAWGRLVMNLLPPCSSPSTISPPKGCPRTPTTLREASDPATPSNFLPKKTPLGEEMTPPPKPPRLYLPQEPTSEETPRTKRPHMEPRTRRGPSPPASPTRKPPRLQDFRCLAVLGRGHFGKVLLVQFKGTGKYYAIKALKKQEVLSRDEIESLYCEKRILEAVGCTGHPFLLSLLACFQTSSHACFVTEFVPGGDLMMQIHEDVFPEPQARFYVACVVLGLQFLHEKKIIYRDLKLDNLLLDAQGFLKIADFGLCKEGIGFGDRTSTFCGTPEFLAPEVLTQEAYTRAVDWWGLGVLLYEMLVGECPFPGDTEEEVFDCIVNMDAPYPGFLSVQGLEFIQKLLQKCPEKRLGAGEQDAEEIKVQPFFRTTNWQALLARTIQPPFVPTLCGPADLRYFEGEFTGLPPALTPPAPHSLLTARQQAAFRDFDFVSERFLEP
T4 sequence (O75460 19-977): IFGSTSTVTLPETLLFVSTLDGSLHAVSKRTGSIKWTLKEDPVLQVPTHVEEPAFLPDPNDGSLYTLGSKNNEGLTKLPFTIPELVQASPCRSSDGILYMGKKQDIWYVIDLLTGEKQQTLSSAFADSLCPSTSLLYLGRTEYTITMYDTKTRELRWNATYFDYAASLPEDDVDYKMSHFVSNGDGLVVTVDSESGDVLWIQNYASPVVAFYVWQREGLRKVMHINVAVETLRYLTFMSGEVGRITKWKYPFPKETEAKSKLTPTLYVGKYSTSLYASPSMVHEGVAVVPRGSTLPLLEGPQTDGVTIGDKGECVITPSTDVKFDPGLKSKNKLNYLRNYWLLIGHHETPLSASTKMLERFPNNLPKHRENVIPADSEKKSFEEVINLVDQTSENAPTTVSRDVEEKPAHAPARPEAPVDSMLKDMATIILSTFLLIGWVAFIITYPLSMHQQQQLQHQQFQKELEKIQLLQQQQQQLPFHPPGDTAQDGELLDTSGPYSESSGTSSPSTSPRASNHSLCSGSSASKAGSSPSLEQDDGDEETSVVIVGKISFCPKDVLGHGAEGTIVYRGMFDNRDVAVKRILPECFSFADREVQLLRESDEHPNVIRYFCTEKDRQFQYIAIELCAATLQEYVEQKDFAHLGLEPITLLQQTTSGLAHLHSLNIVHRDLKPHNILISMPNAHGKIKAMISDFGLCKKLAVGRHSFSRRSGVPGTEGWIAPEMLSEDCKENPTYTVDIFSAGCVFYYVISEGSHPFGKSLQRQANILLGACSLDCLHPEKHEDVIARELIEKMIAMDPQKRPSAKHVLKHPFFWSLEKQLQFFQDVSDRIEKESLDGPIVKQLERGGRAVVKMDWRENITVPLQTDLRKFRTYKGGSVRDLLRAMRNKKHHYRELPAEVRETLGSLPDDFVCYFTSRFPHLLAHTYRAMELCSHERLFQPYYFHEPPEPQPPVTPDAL
T6 sequence (O96013 whole entry): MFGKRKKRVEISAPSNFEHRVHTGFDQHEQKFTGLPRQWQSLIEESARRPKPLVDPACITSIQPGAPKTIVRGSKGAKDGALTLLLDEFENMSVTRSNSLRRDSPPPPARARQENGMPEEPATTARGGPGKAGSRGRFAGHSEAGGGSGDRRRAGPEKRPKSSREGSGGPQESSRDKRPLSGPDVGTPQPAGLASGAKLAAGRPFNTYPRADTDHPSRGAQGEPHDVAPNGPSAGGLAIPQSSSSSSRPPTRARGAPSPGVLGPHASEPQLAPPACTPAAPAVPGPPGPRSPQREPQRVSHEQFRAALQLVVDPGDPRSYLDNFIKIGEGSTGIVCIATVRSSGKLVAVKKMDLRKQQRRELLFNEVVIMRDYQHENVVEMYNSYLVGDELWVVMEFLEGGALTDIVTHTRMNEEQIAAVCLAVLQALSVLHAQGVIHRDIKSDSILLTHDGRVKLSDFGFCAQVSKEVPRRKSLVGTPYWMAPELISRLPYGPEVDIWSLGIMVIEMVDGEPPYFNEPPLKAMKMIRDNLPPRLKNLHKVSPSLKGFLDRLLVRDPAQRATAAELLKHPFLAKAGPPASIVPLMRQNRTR
T2 sequence (O43683 whole entry): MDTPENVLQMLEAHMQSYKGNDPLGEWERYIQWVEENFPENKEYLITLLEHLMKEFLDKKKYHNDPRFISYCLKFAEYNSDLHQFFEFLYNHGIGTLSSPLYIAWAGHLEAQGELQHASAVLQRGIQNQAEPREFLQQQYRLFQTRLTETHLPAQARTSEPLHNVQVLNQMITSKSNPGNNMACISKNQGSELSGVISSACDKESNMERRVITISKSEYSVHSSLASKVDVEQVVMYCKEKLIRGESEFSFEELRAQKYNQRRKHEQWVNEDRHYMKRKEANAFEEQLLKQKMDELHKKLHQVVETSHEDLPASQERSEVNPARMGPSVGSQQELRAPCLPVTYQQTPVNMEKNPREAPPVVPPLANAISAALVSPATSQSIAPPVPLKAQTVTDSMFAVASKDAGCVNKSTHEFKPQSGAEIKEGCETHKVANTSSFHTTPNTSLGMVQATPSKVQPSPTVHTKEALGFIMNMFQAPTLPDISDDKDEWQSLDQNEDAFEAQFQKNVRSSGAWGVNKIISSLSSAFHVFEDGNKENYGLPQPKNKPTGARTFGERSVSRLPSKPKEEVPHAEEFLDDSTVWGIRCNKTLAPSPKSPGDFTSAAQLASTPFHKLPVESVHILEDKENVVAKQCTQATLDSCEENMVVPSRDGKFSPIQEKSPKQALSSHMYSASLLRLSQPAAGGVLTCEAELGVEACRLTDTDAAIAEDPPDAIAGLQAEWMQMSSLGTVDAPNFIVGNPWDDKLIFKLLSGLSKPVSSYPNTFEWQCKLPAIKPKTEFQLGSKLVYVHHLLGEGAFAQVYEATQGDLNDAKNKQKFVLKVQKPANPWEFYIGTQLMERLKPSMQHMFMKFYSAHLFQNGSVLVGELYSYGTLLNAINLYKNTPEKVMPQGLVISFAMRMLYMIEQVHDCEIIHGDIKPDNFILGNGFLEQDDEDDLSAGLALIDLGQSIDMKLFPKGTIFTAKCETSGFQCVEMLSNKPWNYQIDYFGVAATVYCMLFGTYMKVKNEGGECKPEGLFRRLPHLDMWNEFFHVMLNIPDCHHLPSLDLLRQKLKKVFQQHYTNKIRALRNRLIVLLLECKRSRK
T3 sequence (Q96RR4 whole entry): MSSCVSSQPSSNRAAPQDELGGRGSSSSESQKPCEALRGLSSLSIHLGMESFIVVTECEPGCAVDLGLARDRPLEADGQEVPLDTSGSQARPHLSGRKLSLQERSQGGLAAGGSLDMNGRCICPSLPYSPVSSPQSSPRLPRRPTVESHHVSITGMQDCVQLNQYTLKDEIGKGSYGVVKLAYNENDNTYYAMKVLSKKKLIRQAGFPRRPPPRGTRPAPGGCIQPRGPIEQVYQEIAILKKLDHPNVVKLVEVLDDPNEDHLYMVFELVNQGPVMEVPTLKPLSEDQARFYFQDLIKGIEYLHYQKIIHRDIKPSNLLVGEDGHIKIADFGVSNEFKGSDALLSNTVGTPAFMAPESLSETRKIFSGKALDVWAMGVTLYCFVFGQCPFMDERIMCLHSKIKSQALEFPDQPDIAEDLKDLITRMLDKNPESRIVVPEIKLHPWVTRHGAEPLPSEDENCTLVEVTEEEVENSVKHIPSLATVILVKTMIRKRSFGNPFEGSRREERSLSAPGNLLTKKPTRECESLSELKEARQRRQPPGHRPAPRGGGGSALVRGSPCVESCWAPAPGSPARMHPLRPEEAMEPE
T1 sequence (P31751 whole entry): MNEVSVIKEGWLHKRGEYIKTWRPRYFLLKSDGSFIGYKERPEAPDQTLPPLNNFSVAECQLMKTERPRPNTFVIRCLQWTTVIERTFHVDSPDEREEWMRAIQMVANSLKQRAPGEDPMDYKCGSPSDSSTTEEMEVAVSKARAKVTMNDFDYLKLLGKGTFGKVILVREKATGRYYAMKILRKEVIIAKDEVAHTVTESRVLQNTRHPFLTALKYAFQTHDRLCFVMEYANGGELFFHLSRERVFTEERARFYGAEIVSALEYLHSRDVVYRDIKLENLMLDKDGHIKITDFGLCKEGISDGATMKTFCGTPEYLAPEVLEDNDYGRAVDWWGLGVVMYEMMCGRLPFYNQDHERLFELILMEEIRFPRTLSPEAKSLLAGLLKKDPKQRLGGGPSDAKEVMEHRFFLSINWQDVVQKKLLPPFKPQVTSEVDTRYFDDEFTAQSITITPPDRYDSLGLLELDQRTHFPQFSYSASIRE

Compound	IC50 [1, 17]	IC50 [1, 18]	IC50 [1, 19]	IC50 [1, 20]	IC50 [1, 21]	CATDS [2]	CATDS [3]	CATDS [4]	CATDS [5]	CATDS [6]	CATDS [7]	CATDS [8]	CATDS [9]	CATDS [10]	CATDS [11]	CATDS [12]	CATDS [13]	CATDS [14]	CATDS [15]	CATDS [16]	further results
NCc1ccc(-c2nc(-c3ccncc3)c(-c3ccc(Cl)c(O)c3)[nH]2)cc1 [SB-476429-A]	85 nM	243 nM	589 nM	211 nM	86.7 nM																IC50 [1, 22]: 85.4 nM
Nc1ncnc2[nH]c(-c3ccccc3)nc12 [AH5015_KCGS]						0	0	0	0	0	0	0	0	0	0	0	0	0	0	0	
CCc1cc2c(cc1N1CCC(N3CCOCC3)CC1)C(C)(C)c1[nH]c3cc(C#N)ccc3c1C2=O [Alectinib]						0	0	0	0	0	0	0	0	0	0	0	0	0	0	0	
CCN1CCN(Cc2ccc(Nc3ncc(F)c(-c4cc(F)c5nc(C)n(C(C)C)c5c4)n3)nc2)CC1 [Abemaciclib]						0	0	0	0	0	0	0	0	0	0	0	0	0	0	0	
CN(C)C/C=C/C(=O)Nc1cc2c(Nc3ccc(F)c(Cl)c3)ncnc2cc1O[C@H]1CCOC1 [Afatinib]									0	0	0						0	0	0		
CCn1c(-c2nonc2N)nc2c(C#CC(C)(C)O)nc(OCCN)cc21 [GSK902056A]	79 nM	99.2 nM	234 nM	56.5 nM	27 nM																IC50 [1, 22]: 79.2 nM
N#CC1(c2ccc(NC(=O)c3cccnc3NCc3ccncc3)cc2)CCCC1 [Apatinib]						0	0	0	0	0	0	0	0	0	0	0	0	0	0	0	
CCn1c(-c2nonc2N)nc2c(C#CC(C)(C)O)nc(OCCNC)cc21 [GSK949675A]	136 nM	669 nM	1950 nM	441 nM	149 nM																
